Test: gradient 5% acetonitrile 3 min, to 50% in 2 min, to 85% in 15 min, held 3 min, 100 µL/min
Conditions: column: Zorbax Extend-C18 2.1 x 50 mm; eluents: water / acetonitrile, 0.1% formic acid
Procedure, shortened: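 The mobile phases were water and acetonitrile, each with 0.1% formic acid, pumped at 100 μL/min through a Zorbax Extend-C18 column (2.1 × 50 mm, 1.8 μm). Pure standards were injected as mixtures of ~100 molecules and detected by a quadrupole time-of-flight mass spectrometer in positive and negative ionization mode. Retention time came from computationally picked adduct peaks, each inspected by hand.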

Row | RP-LC retention time [s] | SMILES
1 | 1180 | Cc1ccccc1-c1nc(C2CCN(S(=O)(=O)c3ccc(F)cc3)CC2)no1
2 | 702 | COc1ccc(C(=O)NC2CCCCCC2)cc1CN1CC(=O)N2CCCC2C1=O (stereo not given)
3 | 717 | FC(F)(F)c1cnc(N2CCN(Cc3ccccc3)CC2)c(Cl)c1
4 | 1010 | COc1ccc(OC)c(NC(=O)CSc2nccc(N3CCN(c4cc(C)ccc4C)CC3)n2)c1
5 | 673 | Cc1cccc(OCc2nc(-c3ccc4c(c3)ncn4CCN3CCCC3)no2)c1
6 | 746 | CCOC(=O)c1c(C)[nH]c(CCC(=O)NCc2cccs2)c1C
7 | 875 | CCC(=O)n1nc(-c2ccccc2C)nc1N
8 | 735 | CCC(=O)Nc1cccn2nc(C3CCC3)nc12
9 | 654 | COc1ccc(F)cc1S(=O)(=O)N1CCn2c(nn(C)c2=O)C1
10 | 828 | CSc1cccc(NC(=O)N2CCC(c3nc(C(=O)N4CCCCC4)c(C)o3)CC2)c1
11 | 588 | COc1ccc(C(=O)CN(C(=O)N2CCN(C)CC2)S(=O)(=O)c2ccc(C)cc2)cc1
12 | 734 | Cc1nn(-c2cc(N3CCOCC3)ncn2)c(C)c1CCC(=O)NCCc1ccco1
13 | 691 | CCCNc1cc(N2CCCC(CCC(=O)Nc3ccc4c(c3)OCO4)C2)ncn1 (stereo not given)
14 | 980 | CC(C)S(=O)(=O)N1CCC(CCOc2ccccc2)C1 (stereo not given)
15 | 662 | Cc1c(C)n(CCCN2CCOCC2)c2ncn3nc(C(C)N4C(=O)c5ccccc5C4=O)nc3c12 (stereo not given)
16 | 978 | Cc1cccc(N(C)S(=O)(=O)c2ccsc2-c2nc(C)no2)c1
17 | 704 | Cc1ccc(-c2n[nH]c(CCNC(=O)c3ccc(S(=O)(=O)N4CCOCC4)cc3)n2)cc1
18 | 556 | CC(C)n1c(CN2CCOCC2)nc2ccccc21
19 | 758 | Cc1c(Cl)cccc1Nc1c(-c2ccc(N3CCOCC3)cc2)nc2ncccn12
20 | 582 | CC(C)CNC(=O)C1CCN(c2cncnc2N2CCOCC2)CC1
21 | 1100 | O=C(c1ccc(Br)o1)N1CCc2nc(-c3ccc(Cl)cc3)ncc2C1
22 | 990 | COc1ccc(OC)c(NC(=O)C(=O)c2c(C)n(C)c3ccccc23)c1
23 | 828 | CC(C)c1nnc(NC(=O)c2cc(Cl)ccc2Cl)s1

Row | RP-LC retention time [s] | SMILES
24 | 602 | COc1cccc(NC(=O)Cn2ccnc2-c2ccnc(N3CCCC3)c2)c1
25 | 704 | O=C(Cc1ccccc1Cl)NCC1CCN(C(=O)Oc2ccccc2)CC1
26 | 994 | Cc1cc(C)cc(NC(=O)CN2C(=O)C3CCCCN3c3ccc(S(=O)(=O)N(C)C)cc32)c1 (stereo not given)
27 | 679 | COCCNC(=O)C1CCN(S(=O)(=O)c2cc(-c3noc(C)n3)cs2)CC1
28 | 661 | CCOc1ncccc1CNS(=O)(=O)c1cccnc1
29 | 872 | O=S(=O)(c1cccc(F)c1)N1CCC(n2c(-c3ccoc3)nc3cccnc32)C1 (stereo not given)
30 | 875 | CCOc1ccc2nc(NC(=O)C3CCN(C(=O)c4ccc(-c5noc(C)n5)cc4)CC3)sc2c1
31 | 559 | CN(C)c1cc(N2CCCC(NC(=O)c3ccccn3)C2)ncn1 (stereo not given)
32 | 661 | CCCn1cc(CCNS(=O)(=O)CC)c2cccnc21
33 | 777 | CCOC(=O)C1=C[C@]2(CC)CCCN3CCc4c(n1c1ccccc41)[C@@H]32
34 | 751 | CN1c2ccc(F)cc2C(=O)NC12CCN(C(=O)c1ccccc1Cl)CC2
35 | 760 | Cc1oc(C2CCN(S(=O)(=O)c3ccc(C#N)cc3)CC2)nc1C(=O)N1CCOCC1
36 | 832 | CCc1ccc(C2=NN(CCC(=O)NC(C)c3ccc4c(c3)OCCO4)C(=O)CC2)cc1 (stereo not given)
37 | 1080 | Cc1nn(C)c2nc(OC(C)C(=O)NCCc3ccc(Cl)cc3)cc(C(F)(F)F)c12 (stereo not given)
38 | 596 | Cc1ccc2cc(CCC(=O)NCCc3ccccn3)c(=O)[nH]c2c1
39 | 959 | CCn1cc(-c2ccc(F)cc2)cc1C(=O)N1CCCC1
40 | 696 | CCCNc1cc(N2CCC(CCC(=O)NCc3cccc(F)c3)CC2)ncn1
41 | 841 | CC(C(=O)NCCc1c[nH]c2ccccc12)C1CCN(S(=O)(=O)c2cccs2)CC1 (stereo not given)
42 | 731 | O=C(COc1ccccc1)N1CCCCC1c1nncn1CC1CC1 (stereo not given)
43 | 986 | CCOC(=O)c1nnc2c(-c3ccc(F)cc3)c(C)nn2c1C
44 | 1020 | CCOC(=O)c1ccc(N2C=C(C#N)S(=O)(=O)c3ccc(Cl)cc32)cc1
45 | 1160 | CCn1c(C(=O)NCCc2ccccc2)cc2sc(Cl)cc21
46 | 563 | c1ccc(N2CCN(c3c4c(nc5ncnn35)CCC4)CC2)nc1

Row | RP-LC retention time [s] | SMILES
47 | 827 | O=C(Nc1nnc(SCC(=O)N2CCCc3ccccc32)s1)c1cccs1
48 | 1010 | CCc1cc(C(=O)NC2CC2)nc2cc(-c3ccsc3)nn12
49 | 709 | CN(C)C(=O)c1cccnc1OC1CCN(C(=O)c2cccc(Br)c2)C1 (stereo not given)
50 | 652 | O=C(N[C@H]1C[C@@H]2C[C@H]1CN2C(=O)NCc1ccco1)c1ccccc1
51 | 1100 | CC(C)(C)c1ccc(O)c(NC(=O)c2cn(-c3ccc(S(=O)(=O)N4CCCCC4)cc3)cn2)c1
52 | 851 | CC(C)NC(=O)C1(c2ccc(NC(=O)C(C)C)cc2)CCCCC1
53 | 778 | O=C1Nc2ccccc2SC1C(=O)N1CCC(C(=O)N2CCN(c3ccc(F)cc3)CC2)CC1 (stereo not given)
54 | 597 | COC1CCC12CCN(Cc1ccc(C#N)cc1)CC2 (stereo not given)
55 | 768 | CCN1CCCn2cc(S(=O)(=O)Nc3cccc(C)c3C)cc2C1=O
56 | 680 | COc1ccc(C(=O)Nc2ccc3nc(N4CC(C)CC(C)C4)cc(C(=O)O)c3c2)cc1 (stereo not given)
57 | 645 | COc1ccc(-c2cc(C(=O)O)c3ccccc3n2)cc1
58 | 982 | O=C(Cn1cnc2c(sc3nc(-c4ccccc4)ccc32)c1=O)NCc1ccc(F)cc1
59 | 875 | CCOC(=O)c1cc(S(=O)(=O)N2CCCC2C(=O)NC2CCCCC2)cn1C (stereo not given)
60 | 835 | CC1(C(=O)NC2CCCCCC2)CN(S(C)(=O)=O)CC(=O)N1c1cccc(F)c1 (stereo not given)
61 | 756 | COC(=O)c1ccc2c(=O)n(-c3ccc(C)c(C)c3)c(N3CCN(c4ccccn4)CC3)nc2c1
62 | 755 | COc1ccc(-c2nc3c(C)cccn3c2Nc2ccccc2C)cc1
63 | 958 | COCCN1C(=O)CCc2cc(NC(=O)c3ccc(Cl)s3)ccc21
64 | 787 | CCN1C(=O)CCc2cc(NC(=O)CCc3ccccc3OC)ccc21
65 | 794 | Cc1nc(OCC(=O)Nc2ccc(Br)cc2)c2ccccc2n1
66 | 547 | O=C(C1CCCN1c1nnc(N2CCCC2=O)s1)N1CCN(c2ccccn2)CC1 (stereo not given)
67 | 711 | CC(C)C(=O)NCCc1csc(C2CCCN(C(=O)C3CCC3)C2)n1 (stereo not given)
68 | 619 | CN(C)C(=O)C1CN(C(=O)c2cccc(Br)c2)CC12CCOCC2 (stereo not given)
69 | 693 | Cc1ccc(CNC(=O)c2ccc3c(c2)CC(=O)N3C)o1

Row | RP-LC retention time [s] | SMILES
70 | 635 | CN1CCN(c2ccccc2NC(=O)C2CCCN(c3ncnc4c3nc3n4CCCCC3)C2)CC1 (stereo not given)
71 | 1000 | O=S(=O)(c1ccc(OC(F)(F)F)cc1)N1CCC(c2nnc(C(F)(F)F)o2)CC1
72 | 809 | CC(C)c1noc(-c2ccnc(-n3cnc(C(=O)NCc4ccco4)c3)c2)n1
73 | 1160 | Cc1ccc2c(c1)OCC(=O)N2Cc1nc(-c2ccc(C)c(C)c2)no1
74 | 792 | Cc1nc(-c2cnccn2)n(CC(=O)Nc2cccc(Cl)c2)c(=O)c1C
75 | 727 | COCC1CCN(C(=O)C2CCN(c3cnn(Cc4ccccc4)c(=O)c3)CC2)CC1
76 | 895 | O=C(Nc1cccc(OCc2nnc(-c3ccc(F)cc3)o2)c1)C1CC(=O)N(c2ccccc2)C1 (stereo not given)
77 | 717 | O=C(C1=CN(c2ccc3c(c2)OCO3)c2ccccc2S1(=O)=O)N1CCOCC1
78 | 710 | COc1ccc(-c2c(C)noc2NC(C)=O)cc1S(=O)(=O)Nc1ccc(C#N)cc1
79 | 658 | CCc1cc(=O)n(CC(=O)Nc2ccccc2C)c(N2CCOCC2)n1
80 | 794 | Cc1noc([C@@H]2CN(C(=O)c3occc3C)C[C@H]2COCC2CC2)n1
81 | 643 | O=C(Nc1ccc2c(c1)OCCO2)c1coc(NC(=O)C2CC2)n1
82 | 885 | O=C(Cn1cnc2nc(N3CCC(C(=O)NC4CC4)CC3)sc2c1=O)Nc1ccccc1F
83 | 569 | O=C(NCCCn1nc(-c2cccnc2)ccc1=O)c1ccc(F)cc1F
84 | 566 | O=C(NCCCN1CCCC1)C1CCc2sc(C(=O)N3CCOCC3)cc2C1 (stereo not given)
85 | 704 | O=C(NCCCO)C1CCCN(c2ccc(Sc3ccc(Br)cc3)nn2)C1 (stereo not given)
86 | 1030 | CCn1cc(-c2nc(C(=O)Nc3cccc(C#N)c3)cs2)c2cccnc21
87 | 737 | O=C(NCC1CCCO1)c1ccc(Cn2nc(N3CCN(c4ccccc4)CC3)ccc2=O)o1 (stereo not given)
88 | 629 | CCC1(O)CCC12CCN(C(=O)CC1CCN(C(C)=O)CC1)CC2 (stereo not given)
89 | 790 | CCn1ccc(C(=O)Nc2ccc3c(c2)Sc2ncccc2C(=O)N3C(C)C)n1

Row | SMILES | RP-LC retention time [s]
90 | COc1ccc(C(=O)c2c(C)n(CCN3CCOCC3)c3ccccc23)cc1 | 780

Reference: the METLIN SMRT retention time set (Domingo-Almenara et al. 2019)
